{"source": "patent US6177103A", "about": "“Processes to generate submicron particles of water-insoluble compounds” (RTP Pharma, Inc., priority 1999, dated 2001)", "key": {"[1]": {"test": "Particle sizing by photon correlation spectroscopy, fenofibrate microparticles by RELGS process (Example 2)", "type": "physicochemical", "conditions": "Lipoid E-80 and Tween-80 in liquefied carbon dioxide at 3000 psi expanded into water, 22° C.", "description": "The particle sizing was performed by photon correlation spectroscopy using Submicron Particle Sizer-Autodilute Model 370 (NICOMP Particle Sizing Systems, Santa Barbara, Calif.). This instrument provides number weighted, intensity weighted, and volume weighted particle size distributions as well as multi-modality of the particle size distribution, if present."}, "[2]": {"conditions": "cited from earlier work"}}, "data": [{"smiles": "CC(C)OC(=O)C(C)(C)Oc1ccc(C(=O)c2ccc(Cl)cc2)cc1", "note": "[Fenofibrate, fenofibrate]", "values": [{"measurement": "mean particle size", "setting": "[1]", "value": "about 200 nm"}]}, {"smiles": "CC1=C(/C=C/C(C)=C/C=C/C(C)=C/C=C/C=C(C)/C=C/C=C(C)/C=C/C2=C(C)CCCC2(C)C)C(C)(C)CCC1", "note": "[beta-carotene]", "values": [{"measurement": "nanoparticle size", "setting": "[2]; expansion of ethane into a viscous gelatin solution", "value": 300, "unit": "nm"}]}, {"smiles": "CC[C@H](C)C(=O)O[C@H]1C[C@@H](C)C=C2C=C[C@H](C)[C@H](CC[C@@H]3C[C@@H](O)CC(=O)O3)[C@H]21", "note": "[lovastatin]", "values": [{"measurement": "particle size", "setting": "[2]; micro-particles by rapid expansion from liquefied-gas solution in the supercritical region, most particle sizes reported for organic materials", "value": "5-100 micron"}]}]}
